Source: PubChem BioAssay AID2060328 (Molecular Pharmacology Branch, DTP, NCI, 2025)
“And” between values parts separate entries of the source, which are not always exact repeats. Equal values may be shown once.

Test system: MDA-MB-231 multicell spheroids, viability (%T/C)
Assay: Anticancer human tumor MDA-MB-231 cell line growth inhibition [IpAb];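 note: viability read after seven days of drug exposure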;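 for viability, T/C: 100% = DMSO vehicle control viability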
Conditions: for viability, T/C: stronger effect = lower value
From the text: Combinatorial screen of targeted agents with ipatasertib and abemaciclib in multi-cell type tumor spheroids
A high-throughput screen of multi-cell type tumor spheroids was designed to identify active combinations of targeted small molecules and ipatasertib or abemaciclib. Complex spheroids include a stromal component modeled by human endothelial cells (HUVEC) and fibroblasts modeled by human mesenchymal stem cells (MSCs). The concentration ranges selected for each drug and investigational agent were based upon clinically achievable concentrations if the clinical Cmax of the agent was known.
Compounds. The drugs and investigational agents: ipatasertib (NSC767898), abemaciclib(NSC768073), selumetinib (NSC741078), trametinib (758246), adavosertib (NSC754352), everolimus (NSC733504), sapanisertib (NSC764658), vemurafenib (NSC761431), venetoclax (NSC766270), copanlisib (NSC809693), apelisib (NSC765974), palbociblib (NSC758247), vemurafenib (NSC761431), dabrafenib (NSC764134), ravoxertinib (NSC781343), BMS-387032 (NSC767048), sotorasib (NSC818433), talazoparib (NSC767125) and afursertib (NSC778305), were obtained from the National Cancer Institute (NCI) Developmental Therapeutics Program Chemical Repository. The FDA-approved anticancer drug set is available from the NCI Developmental Therapeutics Program. […] The stock solutions were prepared in dimethyl sulfoxide (DMSO, Sigma-Aldrich, St. Louis, MO, cat. D2650) at 800-fold the tested concentration and stored at -70 degrees C prior to their use. All drugs and investigational agents were tested over a range starting from a high concentration at or near the clinical Cmax and decreasing in half-log increments. If the clinical Cmax for an agent had not been determined, the highest concentration tested was 10 microM.
NCI60 Cell Culture. NCI60 cell lines were obtained from the NCI Developmental Therapeutics Program Tumor Repository. For each lot of cells, the Repository performed Applied Biosystems AmpFLSTR Identifiler testing with PCR amplification to confirm consistency with the published Identifier STR profile for each cell line. Cells were kept in continuous culture for no more than 20 passages. The optimal seeding densities for each of the cell lines at each time point assessed were determined prior to performing the concentration response studies. Briefly, the NCI60 human tumor lines were grown as monolayers in RPMI 1640 medium supplemented with 10% FBS and 2 mmol/L L-glutamine.
An additional 9 lines were from the NCI60 cell line panel including MDA-MB-231 breast carcinoma, MDA-MB-468 breast carcinoma, MCF7 breast carcinoma, Hs578T breast carcinoma, MALME-3M melanoma, SK-MEL-2 melanoma, SK-OV-3 ovarian carcinoma, DU-145 prostate carcinoma, PC-3 prostate carcinoma, all cell lines along with major genetic alterations are listed on Table 2. Pooled donor human umbilical vein endothelial cells (HUVEC, Lonza, cat. CC-2519) and human mesenchymal stem cells (hMSC, Lonza, cat. PT-2501) were purchased from Lonza (Walkersville, MD).
PDMR cell lines were grown in complete medium (DC medium): Dulbecco's modified Eagle's medium (DMEM)/F12 supplemented with 5% fetal bovine serum (FBS), 2 mM L-glutamine, 100 U/mL penicillin and 100 µg/ml streptomycin, 0.4 µg/ml hydrocortisone, 10 ng/ml epidermal growth factor (EGF) recombinant human protein, 24 µg/mL adenine, and 0.1 mg/mL primocin. During culture from frozen stock vials, PDMR cells were cultured in the same medium containing 10 µM Y-27632 (see Table 3). The PDCs were cultured in complete DMEM/F12 media without 10 microM Y-27632 dihydrochloride for at least two passages prior to the screen. The pooled donor HUVEC and hMSC were cultured in endothelial cell growth medium 2 (PromoCell, Heidelberg, Germany, cat. C-22011) and mesenchymal stem cell growth medium 2 (PromoCell, cat. C-28009), respectively. For all experiments, HUVEC and hMSC were used at passages </=5.
[…]

[1] = curve of first compound, second compound 0.1 µM
[2] = curve of first compound, second compound 0.316 µM
[3] = curve of first compound, second compound 1 µM
[4] = second compound 0.1 µM, first compound 0.00949 µM
[5] = second compound 0.1 µM, first compound 0.03 µM
[6] = second compound 0.1 µM, first compound 0.0949 µM
[7] = second compound 0.1 µM, first compound 0.3 µM
[8] = second compound 0.316 µM, first compound 0.00949 µM
[9] = second compound 0.316 µM, first compound 0.03 µM
[10] = second compound 0.316 µM, first compound 0.0949 µM
[11] = second compound 0.316 µM, first compound 0.3 µM
[12] = second compound 1 µM, first compound 0.00949 µM
[13] = second compound 1 µM, first compound 0.03 µM
[14] = second compound 1 µM, first compound 0.0949 µM
[15] = second compound 1 µM, first compound 0.3 µM

Question: Which results are given for `CC(=O)c1c(C)c2cnc(Nc3ccc(N4CCNCC4)cn3)nc2n(C2CCCC2)c1=O` + CC(C)NCC(C(=O)N1CCN(c2ncnc3c2C(C)CC3O)CC1)c1ccc(Cl)cc1?
Answer: IC50 [1]: 35.1 nM; IC50 [2]: 17.3 nM; IC50 [3]: 7.21 nM; IC50 (curve of first compound, second compound 3.16 µM): 1.28 nM; IC50 (curve of first compound, second compound 10 µM): < 0.949 nM; viability, T/C (second compound 0.1 µM, first compound 0.000949 µM): 93.3%; viability, T/C (second compound 0.1 µM, first compound 0.003 µM): 89.6%; viability, T/C [4]: 67.7%; viability, T/C [5]: 53%; viability, T/C [6]: 40.3%; viability, T/C [7]: 35%; viability, T/C (second compound 0.316 µM, first compound 0.000949 µM): 82.4%; viability, T/C (second compound 0.316 µM, first compound 0.003 µM): 73.8%; viability, T/C [8]: 58.9%; viability, T/C [9]: 42%; viability, T/C [10]: 34.4%; viability, T/C [11]: 32%; viability, T/C (second compound 1 µM, first compound 0.000949 µM): 69%; viability, T/C (second compound 1 µM, first compound 0.003 µM): 60.9%; viability, T/C [12]: 45.9%; viability, T/C [13]: 36%; viability, T/C [14]: 26.9%; viability, T/C [15]: 26.3%; viability, T/C (second compound 3.16 µM, first compound 0.000949 µM): 50.4%; viability, T/C (second compound 3.16 µM, first compound 0.003 µM): 47.5%; viability, T/C (second compound 3.16 µM, first compound 0.00949 µM): 39.5%; viability, T/C (second compound 3.16 µM, first compound 0.03 µM): 29.1%; viability, T/C (second compound 3.16 µM, first compound 0.0949 µM): 25.5%; viability, T/C (second compound 3.16 µM, first compound 0.3 µM): 22.2%; viability, T/C (second compound 10 µM, first compound 0.000949 µM): 38.5%; viability, T/C (second compound 10 µM, first compound 0.003 µM): 33.9%; viability, T/C (second compound 10 µM, first compound 0.00949 µM): 27.2%; viability, T/C (second compound 10 µM, first compound 0.03 µM): 24.7%; viability, T/C (second compound 10 µM, first compound 0.0949 µM): 22.4%; viability, T/C (second compound 10 µM, first compound 0.3 µM): 20.3%

Question: For `Cn1cnc2c(F)c(Nc3ccc(Br)cc3Cl)c(C(=O)NOCCO)cc21` + CCN1CCN(Cc2ccc(Nc3ncc(F)c(-c4cc(F)c5nc(C)n(C(C)C)c5c4)n3)nc2)CC1, which IC50 (curve of first compound, second compound 0.01 µM) is on record?
Answer: 34.1 nM

Question: What about the IC50 (curve of first compound, second compound 0.0316 µM) of the same compound?
Answer: < 9.49 nM

Question: And the IC50 [1]?
Answer: < 9.49 nM

Question: What about the IC50 [2] of the same compound?
Answer: < 9.49 nM

Question: And the IC50 [3]?
Answer: < 9.49 nM

Question: And the viability, T/C (second compound 0.01 µM, first compound 0.00949 µM)?
Answer: 54.5%

Question: And the viability, T/C (second compound 0.01 µM, first compound 0.03 µM)?
Answer: 53.4%

Question: And the viability, T/C (second compound 0.01 µM, first compound 0.0949 µM)?
Answer: 42.8%

Question: What about the viability, T/C (second compound 0.01 µM, first compound 0.3 µM) of the same compound?
Answer: 36.9%

Question: What about the viability, T/C (second compound 0.01 µM, first compound 0.949 µM) of the same compound?
Answer: 32.3%

Question: What about the viability, T/C (second compound 0.01 µM, first compound 3 µM) of the same compound?
Answer: 20.4%

Question: And the viability, T/C (second compound 0.0316 µM, first compound 0.00949 µM)?
Answer: 46.3%

Question: And the viability, T/C (second compound 0.0316 µM, first compound 0.03 µM)?
Answer: 40.9%

Question: What about the viability, T/C (second compound 0.0316 µM, first compound 0.0949 µM) of the same compound?
Answer: 35.9%

Question: And the viability, T/C (second compound 0.0316 µM, first compound 0.3 µM)?
Answer: 30.9%

Question: What about the viability, T/C (second compound 0.0316 µM, first compound 0.949 µM) of the same compound?
Answer: 25.5%

Question: And the viability, T/C (second compound 0.0316 µM, first compound 3 µM)?
Answer: 13.3%

Question: What about the viability, T/C [4] of the same compound?
Answer: 36.9%

Question: What about the viability, T/C [5] of the same compound?
Answer: 30.1%

Question: And the viability, T/C [6]?
Answer: 29.6%

Question: What about the viability, T/C [7] of the same compound?
Answer: 25.4%

Question: What about the viability, T/C (second compound 0.1 µM, first compound 0.949 µM) of the same compound?
Answer: 19.2%

Question: What about the viability, T/C (second compound 0.1 µM, first compound 3 µM) of the same compound?
Answer: 12.2%

Question: And the viability, T/C [8]?
Answer: 28.2%

Question: And the viability, T/C [9]?
Answer: 27%

Question: And the viability, T/C [10]?
Answer: 22%

Question: And the viability, T/C [11]?
Answer: 19.2%

Question: What about the viability, T/C (second compound 0.316 µM, first compound 0.949 µM) of the same compound?
Answer: 16.1%

Question: What about the viability, T/C (second compound 0.316 µM, first compound 3 µM) of the same compound?
Answer: 9.49%

Question: And the viability, T/C [12]?
Answer: 28.7%

Question: And the viability, T/C [13]?
Answer: 25.3%

Question: And the viability, T/C [14]?
Answer: 20.1%

Question: And the viability, T/C [15]?
Answer: 17.4%

Question: And the viability, T/C (second compound 1 µM, first compound 0.949 µM)?
Answer: 14.9%

Question: What about the viability, T/C (second compound 1 µM, first compound 3 µM) of the same compound?
Answer: 10.7%

Question: What does the source list for `CC(C)(C)c1cnc(CSc2cnc(NC(=O)C3CCNCC3)s2)o1`?
Answer: viability, T/C (compound 0.00949 µM): 109%; viability, T/C (compound 0.03 µM): 118% and 115%; viability, T/C (compound 0.0949 µM): 120% and 105%; viability, T/C (compound 0.3 µM): 1.96% and 1.34%; viability, T/C (compound 0.949 µM): 1.07% and 1.11%; viability, T/C (compound 3 µM): 0.92% and 1.78%; IC50 (curve of compound): 184 nM and 175 nM
